Legend:
soybean = assay: Test C postemergence; assay type: in vivo, Glycine max; conditions: for Soybean plant response rating: 31 g ai/ha
Summary of the method: (§1)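 Plants were kept under greenhouse conditions for 13–15 days following spray. Pre-emergent application went to soil (loam–sand), post-emergent to foliage at 1–4 leaves. Evaluation: visual, percent control against untreated checks.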

oilseed rape = assay: Test C postemergence; assay type: in vivo, Brassica napus; conditions: for Oilseed Rape plant response rating: 31 g ai/ha
Summary of the method: as §1

wheat, winter = assay: Test C postemergence; assay type: in vivo, Triticum aestivum; conditions: for Wheat plant response rating: 31 g ai/ha
Summary of the method: as §1

barnyardgrass = assay: Test B flooded paddy test; assay type: in vivo, Echinochloa crus-galli; conditions: Flood, 250 g ai/ha, 0 to 100 scale where 0 is no effect and 100 is complete control
Summary of the method: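 Evaluation is visual, against untreated controls, 13 to 15 days after treatment. Before treatment, plants reached the 2-leaf stage; pots were then flooded 3 cm deep, compound was added to the water, and that level was maintained. Ratings run 0 to 100, with 100 meaning complete control.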

morningglory [1] = assay: Test C preemergence; assay type: in vivo, Ipomoea coccinea
Summary of the method: as §1

blackgrass = assay: Test A postemergence; assay type: in vivo, Alopecurus myosuroides
Summary of the method: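 Injury scores run from 0, no effect, to 100, complete control, judged by eye against untreated plants roughly 10 days after treatment. Chemicals carried a surfactant in a non-phytotoxic solvent and went onto loam–sand soil preemergence or onto one- to two-leaf seedlings postemergence.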

galium = assay: Test C preemergence; assay type: in vivo, Galium aparine
Summary of the method: as §1

lambsquarters = assay: Test C postemergence; assay type: in vivo, Chenopodium album; conditions: for Lambsquarters plant response rating: 31 g ai/ha
Summary of the method: as §1

corn = assay: Test C preemergence; assay type: in vivo, Zea mays
Summary of the method: as §1

ragweed = assay: Test C postemergence; assay type: in vivo, Ambrosia elatior; conditions: for Ragweed plant response rating: 31 g ai/ha
Summary of the method: as §1

yellow nutsedge = assay: Test C preemergence; assay type: in vivo, Cyperus esculentus
Summary of the method: as §1

morningglory [2] = assay: Test C postemergence; assay type: in vivo, Ipomoea coccinea; conditions: for Morningglory plant response rating: 31 g ai/ha
Summary of the method: as §1

[3] = 16 g ai/ha, postemergence, 0 is no effect, 100 is complete control
[4] = postemergence, visual rating, scale 0 to 100 (0 no effect, 100 complete control), 13 to 15 days
[5] = 125 g ai/ha, postemergence, visual rating, scale 0 to 100 (0 no effect, 100 complete control)
[6] = Postemergence, 62 g ai/ha, scale 0 to 100 (0 no effect, 100 complete control), 13 to 15 days
[7] = 16 g ai/ha, preemergence, scale 0 to 100 (0 no effect, 100 complete control)
[8] = 125 g ai/ha, preemergence, scale 0 (no effect) to 100 (complete control)
[9] = Preemergence, 62 g ai/ha, scale 0 to 100, 0 no effect, 100 complete control
[10] = 125 g ai/ha, 0 to 100 scale, 0 no effect, 100 complete control

For `N#Cc1cnn(-c2c(Oc3ncc(F)cn3)cccc2C(F)F)c1` [Compound 240], which “Plant response rating (0 to 100), Soybean” value (soybean; [3]) is on record?
Its value is 30.

What about the “Soybean plant response rating” value (soybean; [4]) of the same compound?
Its value is 40.

And the “Plant response rating, Soybean” value (soybean; [5])?
The value was 75.

What about the “Plant response rating, Soybean” value (soybean; [6]) of the same compound?
Its value is 60.

What about the “Plant response rating (0 to 100), Oilseed Rape” value (oilseed rape; [3]) of the same compound?
The value was 30.

What about the “Oilseed Rape plant response rating” value (oilseed rape; [4]) of the same compound?
Its value is 35.

And the “Plant response rating, Oilseed Rape” value (oilseed rape; [5])?
Its value is 60.

And the “Plant response rating, Oilseed Rape” value (oilseed rape; [6])?
The value was 55.

And the “Plant response rating (0 to 100), Wheat” value (wheat, winter; [3])?
Its value is 0.

What about the “Wheat plant response rating” value (wheat, winter; [4]) of the same compound?
Its value is 0.

And the “Plant response rating, Wheat” value (wheat, winter; [5])?
The value was 5.

And the “Plant response rating, Wheat” value (wheat, winter; [6])?
Its value is 5.

What about the “Plant response rating, Barnyardgrass” value (barnyardgrass) of the same compound?
Its value is 0.

And the “Morningglory plant response rating” value (morningglory [1]; [7])?
The value was 15.

And the “Morningglory plant response rating” value (morningglory [1]; [8])?
The value was 75.

What about the “Plant response rating, Morningglory” value (morningglory [1]; [9]) of the same compound?
Its value is 75.

What about the “Plant response rating, Blackgrass” value (blackgrass; [10]) of the same compound?
Its value is 90.

And the “Plant response rating, Blackgrass” value (blackgrass; 500 g ai/ha, 0 to 100 scale where 0 is no effect and 100 is complete control)?
Its value is 100.

And the “Galium plant response rating” value (galium; [7])?
The value was 5.

What about the “Galium plant response rating” value (galium; [8]) of the same compound?
Its value is 100.

And the “Plant response rating, Galium” value (galium; [9])?
The value was 100.

What about the “Plant response rating (0 to 100), Lambsquarters” value (lambsquarters; [3]) of the same compound?
The value was 15.

What about the “Lambsquarters plant response rating” value (lambsquarters; [4]) of the same compound?
The value was 45.

What about the “Plant response rating, Lambsquarters” value (lambsquarters; [5]) of the same compound?
The value was 90.

And the “Plant response rating, Lambsquarters” value (lambsquarters; [6])?
The value was 75.

What about the “Corn plant response rating” value (corn; [7]) of the same compound?
Its value is 5.

What about the “Corn plant response rating” value (corn; [8]) of the same compound?
The value was 35.

And the “Plant response rating, Corn” value (corn; [9])?
The value was 5.

What about the “Plant response rating (0 to 100), Ragweed” value (ragweed; [3]) of the same compound?
Its value is 35.

What about the “Ragweed plant response rating” value (ragweed; [4]) of the same compound?
Its value is 40.

What about the “Plant response rating, Ragweed” value (ragweed; [5]) of the same compound?
The value was 75.

What about the “Plant response rating, Ragweed” value (ragweed; [6]) of the same compound?
Its value is 55.

What about the “Nutsedge, Yellow plant response rating” value (yellow nutsedge; [7]) of the same compound?
The value was 0.

And the “Nutsedge, Yellow plant response rating” value (yellow nutsedge; [8])?
Its value is 40.

What about the “Plant response rating, Nutsedge, Yellow” value (yellow nutsedge; [9]) of the same compound?
Its value is 15.

What about the “Plant response rating (0 to 100), Morningglory” value (morningglory [2]; [3]) of the same compound?
Its value is 30.

What about the “Morningglory plant response rating” value (morningglory [2]; [4]) of the same compound?
The value was 65.

And the “Plant response rating, Morningglory” value (morningglory [2]; [5])?
Its value is 90.

What about the “Plant response rating, Morningglory” value (morningglory [2]; [6]) of the same compound?
The value was 75.

What does the source list for `N#Cc1cccc(Oc2ncc(Cl)cn2)c1-n1cc(C(F)F)cn1` [Compound 253, 3-(5-chloropyrimidin-2-yl)oxy-2-[4-(difluoromethyl)-1H-pyrazol-1-yl]benzonitrile]?
Soybean plant response rating (soybean; [4]): 60; Soybean plant response rating (crop injury, 0-100 scale) at 16 g/ha (soybean; Glycine max, post-emergence, 16 g ai/ha, postemergence, 0 is no effect, 100 is complete control): 40%; Soybean plant response rating (crop injury, 0-100 scale) at 125 g/ha (soybean; Glycine max, post-emergence, 125 g ai/ha, postemergence, visual rating, scale 0 to 100 (0 no effect, 100 complete control), read-out: Plant response rating, Soybean): 90%; Soybean plant response rating (crop injury, 0-100 scale) at 62 g/ha (soybean; Glycine max, post-emergence, Postemergence, 62 g ai/ha, scale 0 to 100 (0 no effect, 100 complete control), 13 to 15 days): 40%; Oilseed Rape plant response rating (oilseed rape; [4]): 60; plant injury at 16 g/ha (oilseed rape; Brassica napus, post-emergence, 16 g ai/ha, postemergence, 0 is no effect, 100 is complete control, read-out: Plant response rating (0 to 100), Oilseed Rape): 5%; plant injury at 125 g/ha (oilseed rape; Brassica napus, post-emergence, 125 g ai/ha, postemergence, visual rating, scale 0 to 100 (0 no effect, 100 complete control), read-out: Plant response rating, Oilseed Rape): 80%; plant injury at 62 g/ha (oilseed rape; Brassica napus, post-emergence, Postemergence, 62 g ai/ha, scale 0 to 100 (0 no effect, 100 complete control), 13 to 15 days, read-out: Plant response rating, Oilseed Rape): 10%; Wheat plant response rating (wheat, winter; [4]): 0; plant injury at 16 g/ha (wheat, winter; Triticum aestivum, post-emergence, 16 g ai/ha, postemergence, 0 is no effect, 100 is complete control, read-out: Plant response rating (0 to 100), Wheat): 0%; plant injury at 125 g/ha (wheat, winter; Triticum aestivum, post-emergence, 125 g ai/ha, postemergence, visual rating, scale 0 to 100 (0 no effect, 100 complete control), read-out: Plant response rating, Wheat): 0%; plant injury at 62 g/ha (wheat, winter; Triticum aestivum, post-emergence, Postemergence, 62 g ai/ha, scale 0 to 100 (0 no effect, 100 complete control), 13 to 15 days, read-out: Plant response rating, Wheat): 0%; pest or weed control at 250 g/ha (barnyardgrass; Echinochloa crus-galli, read-out: Plant response rating, Barnyardgrass): 40%; pest or weed control at 16 g/ha (morningglory [1]; Ipomoea, pre-emergence, 16 g ai/ha, preemergence, scale 0 to 100 (0 no effect, 100 complete control), read-out: Morningglory plant response rating): 40%; pest or weed control at 125 g/ha (morningglory [1]; Ipomoea, pre-emergence, 125 g ai/ha, preemergence, scale 0 (no effect) to 100 (complete control), read-out: Morningglory plant response rating): 100%; pest or weed control at 62 g/ha (morningglory [1]; Ipomoea, pre-emergence, Preemergence, 62 g ai/ha, scale 0 to 100, 0 no effect, 100 complete control, read-out: Plant response rating, Morningglory): 98%; Plant response rating, Blackgrass (blackgrass; 31 g ai/ha, 0 to 100 scale, 0 no effect, 100 complete control): 20; Plant response rating, Blackgrass (blackgrass; [10]): 80; pest or weed control at 16 g/ha (galium; Galium, pre-emergence, 16 g ai/ha, preemergence, scale 0 to 100 (0 no effect, 100 complete control), read-out: Galium plant response rating): 70%; pest or weed control at 125 g/ha (galium; Galium, pre-emergence, 125 g ai/ha, preemergence, scale 0 (no effect) to 100 (complete control), read-out: Galium plant response rating): 95%; pest or weed control at 62 g/ha (galium; Galium, pre-emergence, Preemergence, 62 g ai/ha, scale 0 to 100, 0 no effect, 100 complete control, read-out: Plant response rating, Galium): 100%; Lambsquarters plant response rating (lambsquarters; [4]): 80; pest or weed control at 16 g/ha (lambsquarters; Chenopodium album, post-emergence, 16 g ai/ha, postemergence, 0 is no effect, 100 is complete control, read-out: Plant response rating (0 to 100), Lambsquarters): 30%; pest or weed control at 125 g/ha (lambsquarters; Chenopodium album, post-emergence, 125 g ai/ha, postemergence, visual rating, scale 0 to 100 (0 no effect, 100 complete control), read-out: Plant response rating, Lambsquarters): 95%; pest or weed control at 62 g/ha (lambsquarters; Chenopodium album, post-emergence, Postemergence, 62 g ai/ha, scale 0 to 100 (0 no effect, 100 complete control), 13 to 15 days, read-out: Plant response rating, Lambsquarters): 80%; plant injury at 16 g/ha (corn; Zea mays, pre-emergence, 16 g ai/ha, preemergence, scale 0 to 100 (0 no effect, 100 complete control), read-out: Corn plant response rating): 0%; plant injury at 125 g/ha (corn; Zea mays, pre-emergence, 125 g ai/ha, preemergence, scale 0 (no effect) to 100 (complete control), read-out: Corn plant response rating): 90%; Corn plant response rating (crop injury, 0 = no effect, 100 = complete kill) at 62 g/ha (corn; Zea mays, pre-emergence, Preemergence, 62 g ai/ha, scale 0 to 100, 0 no effect, 100 complete control): 35%; Ragweed plant response rating (ragweed; [4]): 45; pest or weed control at 16 g/ha (ragweed; Ambrosia artemisiifolia, post-emergence, 16 g ai/ha, postemergence, 0 is no effect, 100 is complete control, read-out: Plant response rating (0 to 100), Ragweed): 20%; pest or weed control at 125 g/ha (ragweed; Ambrosia artemisiifolia, post-emergence, 125 g ai/ha, postemergence, visual rating, scale 0 to 100 (0 no effect, 100 complete control), read-out: Plant response rating, Ragweed): 80%; pest or weed control at 62 g/ha (ragweed; Ambrosia artemisiifolia, post-emergence, Postemergence, 62 g ai/ha, scale 0 to 100 (0 no effect, 100 complete control), 13 to 15 days, read-out: Plant response rating, Ragweed): 55%; pest or weed control at 16 g/ha (yellow nutsedge; Cyperus, pre-emergence, 16 g ai/ha, preemergence, scale 0 to 100 (0 no effect, 100 complete control), read-out: Nutsedge, Yellow plant response rating): 0%; pest or weed control at 125 g/ha (yellow nutsedge; Cyperus, pre-emergence, 125 g ai/ha, preemergence, scale 0 (no effect) to 100 (complete control), read-out: Nutsedge, Yellow plant response rating): 65%; pest or weed control at 62 g/ha (yellow nutsedge; Cyperus, pre-emergence, Preemergence, 62 g ai/ha, scale 0 to 100, 0 no effect, 100 complete control, read-out: Plant response rating, Nutsedge, Yellow): 20%; Morningglory plant response rating (morningglory [2]; [4]): 75; pest or weed control at 16 g/ha (morningglory [2]; Ipomoea, post-emergence, 16 g ai/ha, postemergence, 0 is no effect, 100 is complete control, read-out: Plant response rating (0 to 100), Morningglory): 60%; pest or weed control at 125 g/ha (morningglory [2]; Ipomoea, post-emergence, 125 g ai/ha, postemergence, visual rating, scale 0 to 100 (0 no effect, 100 complete control), read-out: Plant response rating, Morningglory): 85%; pest or weed control at 62 g/ha (morningglory [2]; Ipomoea, post-emergence, Postemergence, 62 g ai/ha, scale 0 to 100 (0 no effect, 100 complete control), 13 to 15 days, read-out: Plant response rating, Morningglory): 75%

Reference: patent US9695155B2, “Herbicidal substituted pyrimidinyloxy benzene compounds” (E. I. DU PONT DE NEMOURS AND COMPANY, priority 2013, dated 2017)
